Patent US6716829B2, “Aldosterone antagonist and cyclooxygenase-2 inhibitor combination therapy to prevent or treat inflammation-related cardiovascular disorders” (Pharmacia Corporation, priority 2000, dated 2004)

Columns and labels:
[1] = tested on: aldosterone-infused, saline-drinking, uni-nephrectomized rats; assay: Assay B: heart histology (hematoxylin&eosin), vascular inflammatory lesions and myocardial injury; type: in vivo, Male Sprague Dawley rats; conditions: eplerenone 100 mpk p.o., 0.6% KCl group, 4 weeks
Procedure: Assay B: In Vivo Aldosterone Infusion Model Male Sprague Dawley rats (n=39; BW=250 g) […] Uni-nephrectomy performed during implantation of mini-pumps 2. Aldosterone ([…], sc via alzet minipump) 2. […] 1. […] Sacrifice after 4 weeks. Hearts were harvested and divided by half through a transverse section at the mid-ventricles: The upper half was stored into formalin. The bottom part was snap-frozen in liquid nitrogen for biochemical analysis. Hearts were stained with hematoxylin&eosin and the collagen specific dye picro-sirius red and were analyzed for determination of interstitial collagen volume fraction and morphologic abnormalities (i.e. necrosis, vascular injury).

osteopontin = assay: Assay B: osteopontin immunohistochemistry in the heart; type: in vivo, Male Sprague Dawley rats; conditions: aldosterone-infused rats; eplerenone 100 mpk; increased dietary potassium group
Procedure: Assay B: In Vivo Aldosterone Infusion Model Male Sprague Dawley rats (n=39; BW=250 g) 2. Aldosterone (0.75 mg/hr, sc via alzet minipump) 2. […] Determination of osteopontin and COX-2 was performed by quantitative RT-PCR (Taqman). Osteopontin was also identified in the heart by immunohistochemistry.

[2] = tested on: coronary arteries of angiotensin II/salt-treated animals; assay: Assay A: heart histology (hematoxylin&eosin), vascular inflammatory lesions and myocardial injury; type: in vivo, Male Wistar rats; conditions: of ten animals per group; angiotensin II/salt; eplerenone 100 mpk; 4 weeks
Source text: Sacrifice by exanguination after 4 weeks. Blood was be collected in dry tubes for determination of serum electrolytes and in EDTA-containing tubes for measurement of aldosterone and corticosterone levels Hearts were stained with hematoxylin&eosin and have been analyzed for determination of morphologic abnormalities (i.e. necrosis, vascular injury).

[3] = tested on: angiotensin II infused rats; assay: Assay A, angiotensin II infusion model: systolic blood pressure by tail-cuff; type: in vivo, Male Wistar rats; conditions: angiotensin II 25 ng/min sc, 1% NaCl; eplerenone 100 mpk; aldosterone in adrenalectomized rats; 4 weeks
Procedure: Human cardiovascular disorders are complex conditions, often initiated by vascular hypertension or a myocardial infarction (MI). In order to determine the probable effectiveness of a therapy for cardiovascular disorders, it is important to determine the potency of components in several assays. Accordingly, in Assay “A”, the efficacy of the aldosterone antagonist epeplerenone (epoxymexrenone) was determined in a hypertensive rat model with vascular inflammation, using angiotensin II infusion. In Assay “B” a study is described evaluating the efficacy of the aldosterone antagonist epeplerenone (epoxymexrenone) in a rat model using aldosterone infusion to produce hypertension with vascular inflammation. In Assay “C” a further study is described evaluating the efficacy of the aldosterone antagonist epeplerenone (epoxymexrenone) in a rat model using aldosterone infusion to produce hypertension with vascular inflammation.
Assay A: In Vivo Angiotensin II Infusion Model
Male Wistar rats (n=50, 10/group; BW=200 g)
SBP measured by tail-cuff every week

[Cl-].[K+] [dietary potassium]
Vascular inflammatory changes / myocardial injury [1]: did not have significant effects
Osteopontin expression in the heart (immunostaining) (osteopontin): did not reduce osteopontin expression

angiotensin II: infused 25 ng/min sc via alzet minipump to produce hypertensive rat model with vascular inflammation (DRVYIHPF; Angiotensin-2; UniProt P01015 25-32, looked up)
Animals with vascular inflammatory changes (lesions) in the coronary arteries [2]: Seven out of the ten
Systolic Blood Pressure [3]: increased
